Activity, inhibition and IC50 data for one compound are collected here from ChEMBL document CHEMBL6092154, “Design, synthesis, and evaluation of a novel TRAIL-activated HDAC6 inhibitor for the treatment of pulmonary fibrosis” (Bioorg Med Chem, 2024).

By IC50 is commonly meant the concentration needed to halve the response being measured.

Activity calls are given as the source filed them. The rule behind the calls is not given here.

The nature of data set [1]: Toxicity against silicosis C57BL/6J mouse model assessed as uric acid level in serum at 50 mg/kg, ig administered daily via gavage and measured on day 28. The format is organism-based. The note with it: in vivo, po, 672 h, time 28 day.
A short description of data set [2]: Toxicity against bleomycin-induced pulmonary fibrosis C57BL/6J mouse model assessed as effect on heart morphological changes at 25 to 50 mg/kg, ig administered daily via gavage and measured on day 14 by Hematoxylin-Eosin staining based analysis. Type of data set: organism-based. The note with it: in vivo, po, 336 h, dose 25-50 mg/kg, time 14 day.
In data set [3] the test system is Mus musculus. Put plainly: Anti-pulmonary fibrosis activity in bleomycin-induced idiopathic pulmonary fibrosis C57BL/6J mouse model assessed as decrease in lung damage by measuring decrease in collagen deposition in lung at 25 to 50 mg/kg, ig administered daily via gavage and measured on day 14 by Hematoxylin-Eosin staining based analysis. Type of data set: functional, organism-based. The note with it: dose 25-50 mg/kg, time 14.0 day.

The target of data set [4] is T1, Protein deacetylase HDAC6 (Homo sapiens) (UniProt Q9UBN7).
T1 sequence (whole entry): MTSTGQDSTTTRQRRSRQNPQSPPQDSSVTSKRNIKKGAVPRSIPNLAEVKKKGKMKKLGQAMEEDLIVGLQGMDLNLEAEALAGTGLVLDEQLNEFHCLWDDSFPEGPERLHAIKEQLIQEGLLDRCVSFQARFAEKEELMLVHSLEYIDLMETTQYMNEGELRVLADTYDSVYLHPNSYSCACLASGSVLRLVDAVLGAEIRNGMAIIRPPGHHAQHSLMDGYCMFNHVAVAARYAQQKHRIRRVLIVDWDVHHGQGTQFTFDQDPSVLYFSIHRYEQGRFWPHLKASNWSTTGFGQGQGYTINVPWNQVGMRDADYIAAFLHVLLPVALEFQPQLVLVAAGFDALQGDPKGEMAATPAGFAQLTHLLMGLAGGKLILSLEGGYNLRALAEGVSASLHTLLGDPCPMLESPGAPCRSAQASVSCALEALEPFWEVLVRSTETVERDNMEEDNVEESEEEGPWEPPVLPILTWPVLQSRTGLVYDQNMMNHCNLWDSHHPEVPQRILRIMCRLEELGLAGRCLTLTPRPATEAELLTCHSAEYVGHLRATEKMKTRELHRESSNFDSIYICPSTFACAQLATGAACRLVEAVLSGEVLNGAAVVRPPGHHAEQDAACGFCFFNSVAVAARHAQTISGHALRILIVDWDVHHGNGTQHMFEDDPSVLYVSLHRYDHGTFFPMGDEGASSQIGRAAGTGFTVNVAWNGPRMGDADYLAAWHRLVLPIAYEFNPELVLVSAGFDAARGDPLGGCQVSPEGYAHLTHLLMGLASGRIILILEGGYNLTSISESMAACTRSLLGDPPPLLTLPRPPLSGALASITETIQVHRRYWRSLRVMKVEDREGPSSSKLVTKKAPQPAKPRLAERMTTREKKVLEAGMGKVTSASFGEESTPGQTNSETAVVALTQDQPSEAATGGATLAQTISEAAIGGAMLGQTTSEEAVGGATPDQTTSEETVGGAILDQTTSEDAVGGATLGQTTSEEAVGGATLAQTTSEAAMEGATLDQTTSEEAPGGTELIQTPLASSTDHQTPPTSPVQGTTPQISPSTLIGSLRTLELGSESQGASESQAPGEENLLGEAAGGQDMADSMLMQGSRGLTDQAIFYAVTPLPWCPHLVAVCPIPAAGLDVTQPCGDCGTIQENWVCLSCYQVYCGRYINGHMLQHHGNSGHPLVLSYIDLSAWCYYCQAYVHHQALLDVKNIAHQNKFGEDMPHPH
Put plainly: Inhibition of HDAC6 in human RPMI-8226 cells assessed as increase in acetylated alpha-tubulin level at 0.25 to 1 uM incubated for 24 hrs by western blot analysis. The format is cell-based. The settings on record: dose 0.25-1 µM. Background: Immunoblotting shows a protein as a band on a membrane.

In data set [5] the target is T1, Protein deacetylase HDAC6 (Homo sapiens). Put plainly: Inhibition of HDAC6 in human RPMI-8226 cells assessed as increase in acetylated histone H4 level at 1 uM incubated for 24 hrs by western blot analysis. The format is cell-based.
Data set [6] concerns Mus musculus. The experiment in a line: Anti-pulmonary fibrosis activity in bleomycin-induced idiopathic pulmonary fibrosis C57BL/6J mouse model assessed as decrease in lung damage by measuring decrease in inflammatory cell infiltration in lungs at 25 to 50 mg/kg, ig administered daily via gavage and measured on day 14 by Masson's trichrome staining based analysis. Type of data set: functional, organism-based. The note with it: dose 25-50 mg/kg, time 14.0 day.

The nature of data set [7]: Toxicity against silicosis C57BL/6J mouse model assessed as AST index in serum at 50 mg/kg, ig administered daily via gavage and measured on day 28. The format is organism-based. The note with it: in vivo, po, 672 h, time 28 day.
A short description of data set [8]: Toxicity against silicosis C57BL/6J mouse model assessed as effect on kidney morphological changes at 50 mg/kg, ig administered daily via gavage and measured on day 28 by Hematoxylin-Eosin staining based analysis. The format is organism-based. The note with it: in vivo, po, 672 h, time 28 day.
The next data set relates to RPMI-8226. The experiment in a line: Antiproliferative activity against human RPMI-8226 cells assessed as inhibition of cell growth incubated for 24 to 48 hrs by CCK8 assay. The format is functional, cell-based.

In the case of `O=C(NO)c1ccc(CN2C(=O)C3=C(CCN(Cc4cccc(Cl)c4)C3)N3CCN=C23)cc1`, the Activity result in data set [1], in data set [2], in [7] and in data set [8] was “Non-toxic” in each case. Besides, the result in the data set with Mus musculus [3] and with Mus musculus [6] was Active. Besides, in data set [4], the inhibition entry was “Active”. The inhibition result in [5] is listed as “Active; Intensity Of Increase Slightly Lower Than Positive Drug, Acy-1215”. In the data set with RPMI-8226, the IC50 is 0.44 µM.
